In BindingDB's records for doi:10.1016/j.ejmech.2018.09.067 (University of Louvain, 2018):

Legend:
[1] = Inhibition of human MAGL
[2] = Inhibition of human thrombin using Z-GPR-AMC as substrate after 30 mins by fluorimetric analysis
[3] = Inhibition of human MAOA using kynuramine as substrate after 20 mins by spectrophotometric analysis
[4] = Inhibition of human recombinant PDE3A using [3H]cAMP after 20 mins by scintillation counting analysis
[5] = Inhibition of human IDO using L-tryptophan as substrate after 30 mins by Ehrlich's reagent based assay
[6] = Inhibition of human recombinant COX1 using arachidonic acid as substrate after 3 mins by fluorimetric analysis
[7] = Inhibition of human recombinant ACE using Abz-FRK(Dnp)-P-OH as substrate after 30 mins by fluorimetric analysis
[8] = Displacement of [3H]CP 55940 from human recombinant CB1 receptor after 120 mins by scintillation counting analysis
[9] = Inhibition of human recombinant Lck using Ulight-Poly GAT[EAY(1:1:1)]n as substrate after 10 mins by LANCE analysis
[10] = Displacement of [3H]8-OH-DPAT from recombinant human 5-HT1A receptor after 60 mins by scintillation counting analysis
[11] = Displacement of [125I]pirenzepine from human recombinant M1 receptor after 60 mins by scintillation counting analysis
[12] = Inhibition of human recombinant full-length LDHA using sodium pyruvate as substrate after 60 mins by resazurin dye-based assay
[13] = Inhibition of human carbonic anhydrase 2 using 4-nitrophenyl acetate as substrate after 20 mins by spectrophotometric analysis
[14] = Displacement of [3H]muscimol from recombinant human GABAalpha1beta2gamma2 measured after 120 mins by scintillation counting method
[15] = Inhibition of human recombinant acetylcholinesterase using acetylthiocholine as substrate after 30 mins by spectrophotometric analysis
[16] = Inhibition of human recombinant C-terminal His-tagged PHGDH (1 to 533 residues) expressed in Escherichia coli using 3-phosphoglycerate as substrate
[17] = Displacement of [3H]WY 14643 from human recombinant PPARalpha receptor at 10 uM after 120 mins by scintillation counting analysis relative to control
[18] = Inhibition of human recombinant Arg1 using L-arginine as substrate after 5 mins in presence of [guanidino-14C]-L-arginine by liquid scintillation counting analysis

Compound `O=C(NNC(=S)Nc1ccc(Cl)c(Cl)c1)c1ccccc1O` has an IC50 [1] of 363 nM, an IC50 [2] of 0.103 nM and an IC50 [3] of 40 nM. The IC50 [4] was 490 nM, the IC50 [5] was 37 µM and the IC50 [6] was 8 nM. For the same compound, the IC50 [7] was 0.7 nM, the IC50 [8] was 0.58 nM and the IC50 [9] was 31 nM. The IC50 [10] was 0.6 nM, the IC50 [11] was 22 nM and the IC50 [12] was 577 µM. For the same compound, the IC50 [13] was 29 nM, the IC50 [14] was 75 nM and the IC50 [15] was 520 nM. The IC50 [16] was 8.7 µM, the IC50 [17] was 52 nM and the IC50 [18] was 13 µM.
